# Measured values published in paper PMC10141580, “Cyclic Dichalcogenides Extend the Reach of Bioreductive Prodrugs to Harness Thiol/Disulfide Oxidoreductases: Applications to seco-Duocarmycins Targeting the Thioredoxin System” (ACS Central Science, 2023).
# Read-outs that look alike come from different tables or passages of the source.
# Key:
# mouse = assay: Tolerability for repeated dose administration in vivo (summary); settings: for well-tolerated dose: weekly or twice-weekly administration; for remarks: repeated dose administration
# A549 cells = assay: Resazurin cytotoxicity assay, A549, 72 h; settings: read-out: IC50(nM): A549
# Protocol: (§1) We used A549 lung cancer and HeLa cervical cancer cell lines for initial screening of the prodrugs.
# Fi gure S9: Cell ular resazurin-based cytotoxi ci ty as s a y.
# Dose -response curves were calculated from at least 27 incremental single concentrations over a range
# of at least three log units. Individual experiments with annotated experiment numbers are shown for each prodrug
# HeLa-HRE cells = assay: Resazurin cytotoxicity assay, HeLa-HRE, 48 h; settings: for IC50(HeLa)/IC50(A549): ratio HeLa vs A549
# Protocol: as §1
# HeLa-HRE cells were treated with prodrugs of the
# Dose -response curves were calculated from at least 27 incremental single concentrations over a
# range of at least three log units.
# [1] = system: NCI-60 standardized human tumor cell line panel; assay: cells; assay type: cell-based; settings: read-out: GI50
# Balb/c mice = assay: Moderate repeated dosing tolerability study; assay type: in vivo
# Protocol: Next, a moderate repeated dosing study in Balb/c mice (3 animals per group) tested the importance of solubilizing the prodrugs.
# Methods for in vivo animal studies
# All in vivo studies were conducted as contract research together with React ionBiology Eur ope G mbH (Freiburg,
# Germany), EPO – Experimental Pharmacology & Oncology GmbH (Berlin, Germany); Bient a/ Enam ine Lt d. (Kyiv,
# Ukraine) and Leit at – Managing Technologies (Barcelona, Spain), adhering to the respective animal welfare
# Mice were kept in individually ventilated cages at constant temperature (22±2 °C, air-conditioned) and humidity (45
# – 65%), under optimum hygienic conditions with 10 – 15 air changes per hour. A cycle of 12 h artificial fluorescent
# light ning and 12 h darkness was applied , and animal behavior was monitored daily throughout the studies. The
# animals received food and water ad libit um.
# To evaluate toxicity of selected compounds, dose level selection studies within dose range from 0.1 mg/kg to
# 10 mg/kg were performed by intravenous administration into Balb /c mice. Each dose for each tested compound
# was administered in one mouse.
# changes and clinical signs of gross toxicity three tim es per week for 21 consecutive days of post-dosing period.
# After the first week of observation without adverse events, two doses for each test compound were selected as
# tolerated. These two doses were tested in two additional mice for confirmation of toler ability. Additional animals
# consecutive days of post-dosing period. Toxicity of repeated administrations was tested wit h t hr ee repeat ed pr e-
# selected doses at a dosing interval of 7 days. Mortality, body weight changes, and clinical signs of gross toxicity
# were monitored after each drug administration and three times per week for 21 consecutive days after the first
# compound administration. Bleed ing with subsequent hematological tests, clinical chemistry parameters analysis
# (ALT, AST, ALP, LDH, creatine kinase, creatinine, urea, cholesterol, and triglycerides), and necropsy with
# macroscopic inspection were performed on the terminal day of the repeated dosing-regime.
# To test tolerability of selected compounds in vivo, female BALB/c mice were randomized by weight into seven
# groups of t hree animals.
# [2] = read-out: IC50(nM): HeLa, HeLa, 48 h
smiles,measurement,setting,value
O=C(c1cc2cc(OCCCN3CCC3)ccc2[nH]1)N1CC(CCl)c2c1cc(OC(=O)N1CCCC3COCC31)c1ccccc21 (mixture of isomers) [O56-CBI-AZI],well-tolerated dose,mouse,1 mg/kg
same,IC50,A549 cells,410 nM
same,IC50,"HeLa-HRE cells; initial screening, A549 and HeLa cell lines",~300 nM
same,IC50(HeLa)/IC50(A549),HeLa-HRE cells,1.1
same,IC50,HeLa-HRE cells; [2],460 nM
COC(=O)Oc1cc2c(c3ccccc13)[C@H](CCl)CN2C(=O)c1cc2cc(OCCCN3CCC3)ccc2[nH]1 [MC-CBI-AZI],IC50,A549 cells,1.6 nM
same,IC50(HeLa)/IC50(A549),HeLa-HRE cells,0.5
same,IC50,HeLa-HRE cells; [2],0.8 nM
COC(=O)Oc1cc2c(c3ccccc13)[C@H](CCl)CN2C(=O)c1cc2cc(OC)c(OC)c(OC)c2[nH]1 [MC-CBI-TMI],IC50,A549 cells,2.9 nM
same,IC50(HeLa)/IC50(A549),HeLa-HRE cells,1.5
same,IC50,HeLa-HRE cells; [2],4.3 nM
CN1CCN(C(=O)CCN(C(=O)Oc2cc3c(c4ccccc24)[C@H](CCl)CN3C(=O)c2cc3cc(OCCCN4CCC4)ccc3[nH]2)[C@H]2CCSSC2)CC1 [P-SS60-CBI-AZI],GI50,"[1]; 786-0, AZI sheet",330 nM
same,GI50,"[1]; A498, AZI sheet",200 nM
same,GI50,"[1]; A549/ATCC, AZI sheet",110 nM
same,GI50,"[1]; ACHN, AZI sheet",130 nM
same,GI50,"[1]; BT-549, AZI sheet",1000 nM
same,GI50,"[1]; CAKI-1, AZI sheet",150 nM
same,GI50,"[1]; CCRF-CEM, AZI sheet",270 nM
same,GI50,"[1]; COLO 205, AZI sheet",430 nM
same,GI50,"[1]; DU-145, AZI sheet",170 nM
same,GI50,"[1]; EKVX, AZI sheet",350 nM
same,GI50,"[1]; HCC-2998, AZI sheet",150 nM
same,GI50,"[1]; HCT-15, AZI sheet",210 nM
same,GI50,"[1]; HCT-116, AZI sheet",230 nM
same,GI50,"[1]; HL-60(TB), AZI sheet",390 nM
same,GI50,"[1]; HOP-62, AZI sheet",150 nM
same,GI50,"[1]; HOP-92, AZI sheet",1000 nM
same,GI50,"[1]; HT29, AZI sheet",210 nM
same,GI50,"[1]; IGROV1, AZI sheet",540 nM
same,GI50,"[1]; K-562, AZI sheet",220 nM
same,GI50,"[1]; KM12, AZI sheet",310 nM
same,GI50,"[1]; LOX IMVI, AZI sheet",86 nM
same,GI50,"[1]; M14, AZI sheet",200 nM
same,GI50,"[1]; MALME-3M, AZI sheet",230 nM
same,GI50,"[1]; MCF7, AZI sheet",49 nM
same,GI50,"[1]; MDA-MB-231, AZI sheet",402 nM
same,GI50,"[1]; MDA-MB-435, AZI sheet",290 nM
same,GI50,"[1]; MDA-MB-468, AZI sheet",150 nM
same,GI50,"[1]; MOLT-4, AZI sheet",230 nM
same,GI50,"[1]; NCI-H23, AZI sheet",66 nM
same,GI50,"[1]; NCI-H226, AZI sheet",150 nM
same,GI50,"[1]; NCI-H460, AZI sheet",31 nM
same,GI50,"[1]; NCI-H522, AZI sheet",250 nM
same,GI50,"[1]; OVCAR-3, AZI sheet",430 nM
same,GI50,"[1]; OVCAR-4, AZI sheet",1400 nM
same,GI50,"[1]; OVCAR-5, AZI sheet",390 nM
same,GI50,"[1]; OVCAR-8, AZI sheet",140 nM
same,GI50,"[1]; PC-3, AZI sheet",378 nM
same,GI50,"[1]; RPMI-8226, AZI sheet",570 nM
same,GI50,"[1]; RXF 393, AZI sheet",190 nM
same,GI50,"[1]; SF-268, AZI sheet",280 nM
same,GI50,"[1]; SF-295, AZI sheet",110 nM
same,GI50,"[1]; SF-539, AZI sheet",330 nM
same,GI50,"[1]; SK-MEL-2, AZI sheet",340 nM
same,GI50,"[1]; SK-MEL-5, AZI sheet",150 nM
same,GI50,"[1]; SK-MEL-28, AZI sheet",210 nM
same,GI50,"[1]; SK-OV-3, AZI sheet",310 nM
same,GI50,"[1]; SN12C, AZI sheet",530 nM
same,GI50,"[1]; SNB-19, AZI sheet",270 nM
same,GI50,"[1]; SR, AZI sheet",66 nM
same,GI50,"[1]; SW-620, AZI sheet",130 nM
same,GI50,"[1]; T-47D, AZI sheet",570 nM
same,GI50,"[1]; TK-10, AZI sheet",1600 nM
same,GI50,"[1]; U251, AZI sheet",100 nM
same,GI50,"[1]; UACC-62, AZI sheet",110 nM
same,GI50,"[1]; UACC-257, AZI sheet",380 nM
same,GI50,"[1]; UO-31, AZI sheet",190 nM
same,remarks,mouse,well tolerated
same,well-tolerated dose,mouse,3 mg/kg
same,IC50,A549 cells,100 nM
same,IC50(HeLa)/IC50(A549),HeLa-HRE cells,8.9
same,IC50,HeLa-HRE cells; [2],890 nM
CN(CCSSCCN1CCOCC1)C(=O)Oc1cc2c(c3ccccc13)[C@H](CCl)CN2C(=O)c1cc2cc(OCCCN3CCC3)ccc2[nH]1 [SS00M-CBI-AZI],GI50,"[1]; 786-0, AZI sheet",32 nM
same,GI50,"[1]; A498, AZI sheet",9.1 nM
same,GI50,"[1]; A549/ATCC, AZI sheet",4.5 nM
same,GI50,"[1]; ACHN, AZI sheet",28 nM
same,GI50,"[1]; BT-549, AZI sheet",84 nM
same,GI50,"[1]; CAKI-1, AZI sheet",37 nM
same,GI50,"[1]; CCRF-CEM, AZI sheet",100 nM
same,GI50,"[1]; COLO 205, AZI sheet",320 nM
same,GI50,"[1]; DU-145, AZI sheet",12 nM
same,GI50,"[1]; EKVX, AZI sheet",42 nM
same,GI50,"[1]; HCC-2998, AZI sheet",27 nM
same,GI50,"[1]; HCT-15, AZI sheet",57 nM
same,GI50,"[1]; HCT-116, AZI sheet",45 nM
same,GI50,"[1]; HL-60(TB), AZI sheet",130 nM
same,GI50,"[1]; HOP-62, AZI sheet",2.5 nM
same,GI50,"[1]; HOP-92, AZI sheet",380 nM
same,GI50,"[1]; HT29, AZI sheet",70 nM
same,GI50,"[1]; IGROV1, AZI sheet",45 nM
same,GI50,"[1]; K-562, AZI sheet",75 nM
same,GI50,"[1]; KM12, AZI sheet",31 nM
same,GI50,"[1]; LOX IMVI, AZI sheet",8.7 nM
same,GI50,"[1]; M14, AZI sheet",10 nM
same,GI50,"[1]; MALME-3M, AZI sheet",48 nM
same,GI50,"[1]; MCF7, AZI sheet",7.5 nM
same,GI50,"[1]; MDA-MB-231, AZI sheet",71.1 nM
same,GI50,"[1]; MDA-MB-435, AZI sheet",37 nM
same,GI50,"[1]; MDA-MB-468, AZI sheet",40 nM
same,GI50,"[1]; MOLT-4, AZI sheet",50 nM
same,GI50,"[1]; NCI-H23, AZI sheet",10 nM
same,GI50,"[1]; NCI-H226, AZI sheet",9.5 nM
same,GI50,"[1]; NCI-H522, AZI sheet",270 nM
same,GI50,"[1]; OVCAR-3, AZI sheet",240 nM
same,GI50,"[1]; OVCAR-4, AZI sheet",620 nM
same,GI50,"[1]; OVCAR-5, AZI sheet",68 nM
same,GI50,"[1]; OVCAR-8, AZI sheet",25 nM
same,GI50,"[1]; PC-3, AZI sheet",39.6 nM
same,GI50,"[1]; RPMI-8226, AZI sheet",470 nM
same,GI50,"[1]; RXF 393, AZI sheet",41 nM
same,GI50,"[1]; SF-268, AZI sheet",24 nM
same,GI50,"[1]; SF-295, AZI sheet",3 nM
same,GI50,"[1]; SF-539, AZI sheet",51 nM
same,GI50,"[1]; SK-MEL-2, AZI sheet",49 nM
same,GI50,"[1]; SK-MEL-5, AZI sheet",6.3 nM
same,GI50,"[1]; SK-MEL-28, AZI sheet",29 nM
same,GI50,"[1]; SK-OV-3, AZI sheet",8.7 nM
same,GI50,"[1]; SN12C, AZI sheet",65 nM
same,GI50,"[1]; SNB-19, AZI sheet",6.6 nM
same,GI50,"[1]; SR, AZI sheet",7.4 nM
same,GI50,"[1]; SW-620, AZI sheet",46 nM
same,GI50,"[1]; T-47D, AZI sheet",290 nM
same,GI50,"[1]; TK-10, AZI sheet",970 nM
same,GI50,"[1]; U251, AZI sheet",3.6 nM
same,GI50,"[1]; UACC-62, AZI sheet",6.2 nM
same,GI50,"[1]; UACC-257, AZI sheet",92 nM
same,GI50,"[1]; UO-31, AZI sheet",44 nM
same,IC50,A549 cells,4.1 nM
same,IC50(HeLa)/IC50(A549),HeLa-HRE cells,1.7
same,IC50,HeLa-HRE cells; [2],6.9 nM
COc1cc2cc(C(=O)N3C[C@@H](CCl)c4c3cc(OC(=O)N(C)CCSSCCN3CCOCC3)c3ccccc43)[nH]c2c(OC)c1OC [SS00M-CBI-TMI],GI50,[1]; 786-0,16 nM
same,GI50,[1]; A498,270 nM
same,GI50,[1]; A549/ATCC,31 nM
same,GI50,[1]; ACHN,19 nM
same,GI50,[1]; BT-549,15 nM
same,GI50,[1]; CAKI-1,41 nM
same,GI50,[1]; CCRF-CEM,100 nM
same,GI50,[1]; COLO 205,450 nM
same,GI50,[1]; EKVX,82 nM
same,GI50,[1]; HCC-2998,78 nM
same,GI50,[1]; HCT-15,190 nM
same,GI50,[1]; HCT-116,610 nM
same,GI50,[1]; HL-60(TB),78 nM
same,GI50,[1]; HOP-62,11 nM
same,GI50,[1]; HOP-92,750 nM
same,GI50,[1]; HT29,320 nM
same,GI50,[1]; IGROV1,23 nM
same,GI50,[1]; K-562,330 nM
same,GI50,[1]; KM12,150 nM
same,GI50,[1]; LOX IMVI,42 nM
same,GI50,[1]; M14,31 nM
same,GI50,[1]; MALME-3M,110 nM
same,GI50,[1]; MDA-MB-435,51 nM
same,GI50,[1]; MDA-MB-468,12 nM
same,GI50,[1]; MOLT-4,17 nM
same,GI50,[1]; NCI-H23,9.6 nM
same,GI50,[1]; NCI-H226,29 nM
same,GI50,[1]; NCI-H460,9.5 nM
same,GI50,[1]; NCI-H522,400 nM
same,GI50,[1]; OVCAR-3,690 nM
same,GI50,[1]; OVCAR-4,560 nM
same,GI50,[1]; OVCAR-5,82 nM
same,GI50,[1]; OVCAR-8,43 nM
same,GI50,[1]; PC-3,25 nM
same,GI50,[1]; RPMI-8226,850 nM
same,GI50,[1]; RXF 393,6.6 nM
same,GI50,[1]; SF-268,21 nM
same,GI50,[1]; SF-295,7.4 nM
same,GI50,[1]; SF-539,8.3 nM
same,GI50,[1]; SK-MEL-5,35 nM
same,GI50,[1]; SK-MEL-28,41 nM
same,GI50,[1]; SK-OV-3,16 nM
same,GI50,[1]; SN12C,34 nM
same,GI50,[1]; SNB-19,28 nM
same,GI50,[1]; SR,6.9 nM
same,GI50,[1]; SW-620,570 nM
same,GI50,[1]; T-47D,50 nM
same,GI50,[1]; TK-10,820 nM
same,GI50,[1]; U251,18 nM
same,GI50,[1]; UACC-62,52 nM
same,GI50,[1]; UACC-257,500 nM
same,IC50,A549 cells,35 nM
same,IC50(HeLa)/IC50(A549),HeLa-HRE cells,3.6
same,IC50,HeLa-HRE cells; [2],125 nM
CN(C(=O)Oc1cc2c(c3ccccc13)[C@H](CCl)CN2C(=O)c1cc2cc(OCCCN3CCC3)ccc2[nH]1)[C@H]1CCS[Se]C1 [SeS60-CBI-AZI],outcome of repeated dosing at 3 mg/kg,Balb/c mice; once weekly,significant loss of body weight
same,outcome of repeated dosing at 1 mg/kg,Balb/c mice; treated twice a week,still caused adverse effects
same,remarks,mouse,adverse effects
same,IC50,A549 cells; Homo sapiens,60 nM
same,IC50,"HeLa-HRE cells; Homo sapiens, HeLa, 48 h, read-out: IC50(nM): HeLa",49 nM
same,IC50(HeLa)/IC50(A549),HeLa-HRE cells,0.8
